{"source": "patent US20250249014A1", "about": "“A COMBINATION FOR TREATING A RETINAL DISEASE” (HADASIT MEDICAL RESEARCH SERVICES AND DEVELOPMENT LTD., priority 2022, published 2025)", "molecules": {"B1": {"name": "Ranibizumab: a monoclonal antibody that inhibits VEGF (antibody, chains of the INN, looked up, V domains shown)", "VH": "EVQLVESGGGLVQPGGSLRLSCAASGYDFTHYGMNWVRQAPGKGLEWVGWINTYTGEPTYAADFKRRFTFSLDTSKSTAYLQMNSLRAEDTAVYYCAKYPYYYGTSHWYFDVWGQGTLVTVSS", "VL": "DIQLTQSPSSLSASVGDRVTITCSASQDISNYLNWYQQKPGKAPKVLIYFTSSLHSGVPSRFSGSGSGTDFTLTISSLQPEDFATYYCQQYSTVPWTFGQGTKVEIK"}}, "key": {"HUVECs [1]": {"system": "HUVECs", "assay": "Cell proliferation assay (WST-1) on HUVECs, with synergy analysis", "type": "cell-based, Human", "conditions": "for IC50 (inhibitory concentration of 50% cell growth compared to control) / IC50 / % of Inhibition ± SD: HUVECs proliferation; for dose-proliferation inhibition relationship: increasing SMI concentration; for IC50: Homo sapiens, HUVEC; for % of Inhibition ± SD: maximal attainable concentration of each SMI (28.421 μM, 17.85 μM, 20.99 μM); for effect of addition to the Azeliragon and EHop-016 combination on proliferation inhibition: CCR2-RA-[R] 22.74 μM", "protocol": "Cell proliferation assay—The principle of cell proliferation assay is illustrated in FIG. 1. Briefly, HUVECS were seeded and maintained in EGM™-2 (Lonza Bioscience Solutions) medium for 24 hours. The cells were then treated with various dosages of SMI for designated time periods. Each experiment included a DMSO-treated control group. Tetrazolium salt was added according to the manufacturer's instructions and formation of formazan dye was quantified by measuring the absorbance at 440 nm using spectrophotometer. The formation of formazan dye is directly proportional to number of living cells.\nAnalysis of combined synergistic effect-Analysis of combined SMIs effect was determined from the results of the cell proliferation assay after 72 hours. SMIs synergy was determined by three synergy models. • 1. The Zero Interaction Potency (ZIP) model is a reference model for evaluating the effect of combination of two drugs by comparing the change in the potency of the dose-response curves between individual drugs and their combinations. A zip score higher than 10 is indicative of a synergistic combination, a zip score of between −10 and 10 is indicative of an additive combination and a zip score lower than −10 is indicative of an antagonistic combination. • 2. […] Values below 1 will represent synergism and above 1 antagonism."}, "HUVECs [2]": {"system": "HUVECs", "assay": "Endothelial cell migration assay (scratch test)", "type": "cell-based, Human", "conditions": "EHop-016 0.8 μM at 11 hours, CCR2-RA-[R] 5 μM at 13 hours", "protocol": "Endothelial cell migration assay (scratch test)—5×10^4 cells/200 μl of HUVECs were cultured in 96 wells Incucyte® ImageLock 96-well microplates plates to near confluence in EGM™-2 medium for 24 hours. Afterwards, a homogeneous, 700-800-micron wide scratch wounds were created using Incucyte® WoundMaker. Different SMIs concentrations vs. DMSO (solvent) were added. Serial images for 26 hours of the migrating cells were obtained hourly using a live cell imaging system (Incucyte®)."}, "[3]": {"system": "Hypoxia-inducible factor 1-alpha (HIF-1α)", "assay": "Western blot of HIF-1α expression in HUVEC cells", "type": "cell-based, Human", "conditions": "72 hours, combination Azeliragon 0.6 μM and EHop-016 1.3 μM", "quoted_text": "Western blot—5×10^4 HUVEC cells were seeded in 10 cm dish in EGM™-2 medium for 24 hours. The cells were then treated with various dosages and combinations of SMI for 72 hours in addition to a control group treated with DMSO. Cells were lysed in WCE (whole-cell extraction) buffer [25 mM Hepes, pH 7.7, 0.3 M NaCl, 1.5 mM MgCl2, 0.2 mM EDTA, 0.1% Triton X-100, 0.5 mM DTT (dithiothreitol), 20 mM 2-glycerophosphate, 0.1 mM Na3VO4, 100 μg/ml PMSF and protease inhibitor cocktail (Sigma-Aldrich, 1:100 dilution)]. The proteins were then separated by SDS/PAGE (10% gel), followed by transfer on to a nitrocellulose membrane. Blots were blocked in 5% (w/v) non-fat dried skimmed milk powder in PBS and washed in PBS."}, "choroid explants": {"system": "choroid explants", "assay": "Choroid sprouting assay, ex-vivo", "type": "cell-based, C57BL/6J mice", "conditions": "7 days; 0.55 μM Azeliragon, EHop-016 alone, 0.70 μM in combination; compared to untreated and DMSO", "protocol": "Plates were then incubated for 10 minutes in 37° C., in a 5% CO2 cell culture incubator without medium to solidify the Matrigel™. […] Fresh medium and SMIs were replaced every two days and grown for 7 days (x3 time medium replaced)."}, "[4]": {"system": "choroidal neovascularization (CNV)", "assay": "Laser-Induced CNV model", "type": "in vivo, C57BL/6J mice", "conditions": "dosage calibration assays; EHop-016 30 μM, Aflibercept 41.27 μM", "protocol": "Laser-Induced CNV Model—CNV was induced in C57BL/6J mice using argon green ophthalmic laser ([…], 50 μm, 0.1 sec) applied under fundoscopy to rupture Bruch's membrane. […] The injections were performed at the superotemporal sclera, where a perforating sclerotomy was made with 27-gauge (G) needle at approximately 1-2 mm from the limbus. Then, 1-2 μl of SMIs (solved in 5% Cremophor: 5% ethanol: 90% saline) vs. Sham were injected through the sclerotomy, under fundoscopy using 34 g microsyringe (Hamilton, Benfleet, UK).\nQuantification of CNV—Eyes were enucleated, treated according to standard protocols. […] The flat mounts were then washed six times for 20 min each in PBS and mounted on a slide using mounting medium. The area of CNV surrounding each laser injury was measured using ImageJ software."}, "VEGF": {"system": "VEGF", "sequence (P15692 207-311 limits assumed)": "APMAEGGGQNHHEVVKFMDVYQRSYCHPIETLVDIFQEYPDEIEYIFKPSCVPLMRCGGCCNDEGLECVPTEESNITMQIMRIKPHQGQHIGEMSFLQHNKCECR", "conditions": "diabetic macular edema patients; cited from earlier work"}, "[5]": {"conditions": "HUVECs, single 72-hour treatment"}, "[6]": {"conditions": "single 72-hour treatment, read-out: IC50 (inhibitory concentration of 50% cell growth compared to control)"}}, "note": "Counter-ions that a name gives are not always drawn. Like-named read-outs stand apart in the source and are kept apart here.", "data": [{"molecule": "Cc1ccc(NC(=O)c2cccc(OCc3c(C)noc3C)c2)cc1S(N)(=O)=O", "note": "(racemic) [Z62954982, 3-((3,5-Dimethylisoxazol-4-yl)methoxy)-N-(4-methyl-3-sulfamoyl-phenyl)benzamide]", "values": [{"measurement": "IC50 (inhibitory concentration of 50% cell growth compared to control)", "setting": "HUVECs [1]; single 72-hour treatment", "result": "No effect"}, {"measurement": "inhibitory effect with longer incubation time", "setting": "HUVECs [1]; HUVECs, treatment time extended to 120 hours compared to 72-hour incubation", "result": "did not improve the inhibitory effect"}]}, {"molecule": "COc1ccc(/C=C/c2cc(O)cc(O)c2)cc1", "note": "[4′-Methoxyresveratrol, 5-[(E)-2-(4-Methoxyphenyl)ethen-1-yl]benzene-1,3-diol]", "values": [{"measurement": "dose-proliferation inhibition relationship", "setting": "HUVECs [1]; [5]", "result": "linear inhibition of proliferation"}, {"measurement": "IC50", "setting": "HUVECs [1]; [6]", "result": 64, "unit": "µM"}]}, {"molecule": "O=C(CNC(=O)c1cccc(C(F)(F)F)c1)N[C@@H]1CCN(Cc2ccc(Cl)cc2)C1", "note": "[CCR2 antagonist 4 hydrochloride, N-[2-[[(3R)-1-[(4-chlorophenyl)methyl]-3-pyrrolidinyl]amino]-2-oxoethyl]-3-(trifluoromethyl)benzamidehydrochloride]", "values": [{"measurement": "% of Inhibition ± SD", "setting": "HUVECs [1]", "result": "13.8 ± 8.07", "unit": "%"}]}, {"molecule": "CC(=O)C1=C(O)C(=O)N(c2ccc(Cl)cc2F)[C@@H]1C1CCCCC1", "note": "[CCR2-RA-[R], (R)-4-Acetyl-1-(4-chloro-2-fluorophenyl)-5-cyclohexyl-3-hydroxy-1,5-dihydro-2H-pyrrol-2-one]", "values": [{"measurement": "inhibition of HUVECs proliferation (summary in words)", "setting": "HUVECs [1]", "result": "did not show significant inhibition"}, {"measurement": "% of Inhibition ± SD", "setting": "HUVECs [1]", "result": "33.4 ± 4.30", "unit": "%"}, {"measurement": "effect of addition to the Azeliragon and EHop-016 combination on proliferation inhibition", "setting": "HUVECs [1]; HUVECs, 24-hour treatment", "result": "significantly augmented the proliferation inhibition effect"}, {"measurement": "effect of addition to the Azeliragon and EHop-016 combination on proliferation inhibition", "setting": "HUVECs [1]; HUVECs, 48- and 72-hour treatment", "result": "not"}, {"measurement": "inhibition of HUVECs migration", "setting": "HUVECs [2]", "result": "strongly inhibited cell migration"}]}, {"molecule": "CCn1c2ccccc2c2cc(Nc3ccnc(NCCCN4CCOCC4)n3)ccc21", "note": "[EHop-016, N4-(9-Ethyl-9H-carbazol-3-yl)-N2-[3-(4-morpholinyl)propyl]-2,4-pyrimidinediamine]", "values": [{"measurement": "dependence of proliferation inhibition on the initial number of cells", "setting": "HUVECs [1]; HUVECs at 3×10^3 and 1×10^3 cells/well", "result": "independent from the initial number of cells"}, {"measurement": "decrease of IC50 by daily dosing in comparison with IC50 of SD regimen", "setting": "HUVECs [1]; HUVECs, 72 hours", "result": "more than a half"}, {"measurement": "dose-proliferation inhibition relationship", "setting": "HUVECs [1]; [5]", "result": "linear inhibition of proliferation"}, {"measurement": "IC50", "setting": "HUVECs [1]; daily dosing, 72 hours, read-out: IC50 following daily dosing regimen", "result": 1.24, "unit": "µM"}, {"measurement": "IC50", "setting": "HUVECs [1]; [6]", "result": 2.31, "unit": "µM"}, {"measurement": "HIF-1α expression", "setting": "[3]", "result": "inhibited expression"}, {"measurement": "inhibition of HUVECs migration", "setting": "HUVECs [2]", "result": "strongest migration inhibitor"}, {"measurement": "area of the sprouting vessels", "setting": "choroid explants", "result": "inhibited the area of the sprouting vessels"}, {"measurement": "CNV area", "setting": "[4]", "result": "comparable to the dramatic effect received from Aflibercept injection"}]}, {"molecule": "O=C(c1ccc(Cl)cc1)N(Cc1ccccc1)C1CCCCC1", "note": "[FPS-ZM1, 4-Chloro-N-cyclohexyl-N-(phenylmethyl)benzamide]", "values": [{"measurement": "dose-proliferation inhibition relationship", "setting": "HUVECs [1]; [5]", "result": "linear inhibition of proliferation"}, {"measurement": "IC50", "setting": "HUVECs [1]; [6]", "result": 30, "unit": "µM"}]}, {"molecule": "CCN(CC)CCCC(C)Nc1nc(C)cc(Nc2ccc3nc(C)cc(N)c3c2)n1.Cl.Cl.Cl", "note": "(stereo not shown) [NSC 23766 trihydrochloride, N6-[2-(4-Diethylamino-1-methyl-butylamino)-6-methyl-pyrimidin-4-yl]-2-methyl-quinoline-4,6-diamine trihydrochloride]", "values": [{"measurement": "IC50 (inhibitory concentration of 50% cell growth compared to control)", "setting": "HUVECs [1]; single 72-hour treatment", "result": "No effect"}]}, {"molecule": "O=C(NCC(=O)N1CC[C@H](NC2CCC(O)(c3ccc(-c4ncccn4)cn3)CC2)C1)c1cccc(C(F)(F)F)c1", "note": "(stereo partly drawn) [PF-4136309, N-[2-[(3S)-3-[[4-hydroxy-4-(5-pyrimidin-2-ylpyridin-2-yl)cyclohexyl]amino]pyrrolidin-1-yl]-2-oxoethyl]-3-(trifluoromethyl)benzamide]", "values": [{"measurement": "% of Inhibition ± SD", "setting": "HUVECs [1]", "result": "25.7 ± 7.68", "unit": "%"}]}, {"molecule": "Aflibercept: Aflibercept (Eylea®), comparator injection in Laser-induced CNV model", "values": [{"measurement": "CNV area", "setting": "[4]", "result": "dramatic effect"}]}, {"molecule": "B1", "values": [{"measurement": "clinical outcome (vision, macular edema)", "setting": "VEGF", "result": "rapidly and sustainably improved vision"}]}]}
